The source of these data is patent publication US20220034903A1, “Therapies That Target Autoimmunity For Treating Glaucoma And Optic Neuropathy” (The Schepens Eye Research Institute, Inc., priority 2011, published 2022).

Format in all cases: in vivo
Assay [1] has as its system RGCs. The assay can be described thus: Optic nerve crush injury, RGC loss at 4 weeks. As to conditions: wild-type mice, rapamycin i.p. 100 μg/day, 4 weeks post-optic nerve crush (87% loss without treatment). On the procedure: FIG. 9 is a bar chart showing that suppressing autoimmunity using immuno-deficient mice or immune suppressor promotes RGC survival after optic neuropathy. Optic never crush injury was performed in wild-type (wt) mice that received daily injection of PBS (wt) or rapamycin (Rapam) as well as in Rag1^−/− (Rag1) and TCRβ^−/− (TCRβ) mice. Animals were sacrificed 4 weeks post operation, and percentage of RGC loss was assessed. (*P<0.01 as compared to the normal subject group).
(§1) A standard procedure for quantification of RGC axon loss in optic nerve sections was used, e.g., as described in Cho et al., J Cell Sci 118, 863-872. (2005). Axonal density was calculated, and the percentage of axon loss was determined by comparing with the axon density calculated from corresponding regions of the contralateral control eyes. RGC loss was assessed quantitatively in retinal flat-mounts that were incubated with a primary antibody against a RGC specific marker, β-III-tubulin (Fournier, A. E. & McKerracher, L. Biochem Cell Biol 73, 659-664 (1995); Fitzgerald et al., Investigative ophthalmology & visual science (2009); Tuj1; Sigma-Aldrich, St.), followed by a Alexa Fluor 488-conjugated secondary antibody. The degree of RGC loss was assessed as previously described (Chen et al., Investigative ophthalmology & visual science 52, 36-44 (2011)). […]

Assay [2] relates to RGCs. Briefly: AION (ischemic optic neuropathy), RGC loss in retinal flat-mounts. To be noted: WT mice, injected into the vitreous at 3, 7 and 14 days post injury, sacrificed 4 weeks after AION, vs IgG isotype. Here is the method: OKT3 antibody was injected into the vitreous of ischemia WT mice at 3, 7, and 14 days post injury. Injection of IgG isotype served as the control. All of the recipient mice were sacrificed at 4 weeks after AION.
as §1, with “(2011)). The total numbers and densities of RGCs were calculated, and the percentage of RGC loss was determined by comparing RGC number with that obtained from the corresponding regions of the contralateral control eyes.” for “(2011)).”

The subject of assay [3] is retinal activity. The assay can be described thus: Electroretinogram a and b wave after AION. As to conditions: mice with AION, vs IgG isotype-injected ischemia group, different intensity of light stimulation.

`CO[C@H]1C[C@@H]2CC[C@@H](C)[C@@](O)(O2)C(=O)C(=O)N2CCCC[C@H]2C(=O)O[C@H]([C@H](C)C[C@@H]2CC[C@@H](O)[C@H](OC)C2)CC(=O)[C@H](C)/C=C(\C)[C@@H](O)[C@@H](OC)C(=O)[C@H](C)C[C@H](C)/C=C/C=C/C=C/1C` [rapamycin] came in with an RGC loss in assay [1] of 65%. In the case of “OKT3 antibody: monoclonal antibody targeted at the CD3 receptor on T cells; clinically approved immunosuppressant”, the “effect on RGC loss after AION” value in assay [2] is recorded as “neuroprotective effect”. Also, the “retinal function (electroretinogram a and b wave) after AION” value in assay [3] is given as “functional rescue of retinal activity”.
